Assay results from patent publication US20240090503A1, “FUNGICIDAL OXADIAZOLES AND THEIR MIXTURES” (FMC CORPORATION, priority 2020, published 2024).
Like-named read-outs stand apart in the source and are kept apart here.

Key:
Assay type in all cases: in vivo
[1] = tested on: Phakopsora pachyrhizi (the causal agent of Asian soybean rust); assay: Test A: preventive spray on soybean seedlings, Asian soybean rust, visual disease rating; conditions: for pest or weed control at 10 µg/mL: read-out: Test A disease control rating
Method in brief: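 Preventive test: soybean seedlings received a run-off spray of compound suspended at the set ppm in 50/50 acetone/water plus 250 ppm PEG400, and one day later a P. pachyrhizi spore inoculum. Visual scoring (0 none to 100 full disease control) followed 24 h saturated incubation and 8 days' growth chamber, both at 22° C.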

[2] = tested on: Zymoseptoria tritici (the causal agent of wheat leaf blotch); assay: Test B: preventive spray on wheat seedlings, wheat leaf blotch, visual disease rating; conditions: for pest or weed control at 100 µg/mL: read-out: Test B disease control rating
Excerpt: General protocol for preparing test suspensions for Tests A-D: the test compounds were first dissolved in acetone in an amount equal to 3% of the final volume and then suspended at the desired concentration (in ppm) in acetone and purified water (50/50 mix by volume) containing 250 ppm of the surfactant PEG400 (polyhydric alcohol esters). The resulting test suspensions were then used in Tests A-D.
The test suspension was sprayed to the point of run-off on wheat seedlings. The following day the seedlings were inoculated with a spore suspension of Zymoseptoria tritici (the causal agent of wheat leaf blotch) and incubated in a saturated atmosphere at 24° C. for 48 h, and then moved to a growth chamber at 20° C. for 17 days, after which time visual disease ratings were made.
The test results for Tests A-C presented in Table A below for compounds of Formula 1 illustrate the fungicidal activity of component (a) contributing to the plant disease control utility of compositions comprising component (a) in combination with component (b) according to the present invention. In the Table, a rating of 100 indicates 100% disease control and a rating of 0 indicates no disease control (relative to the controls). A dash (-) indicates the compound was not tested. The test suspensions were sprayed at the concentration listed in the column “Rate in ppm”, unless otherwise indicated. An asterisk “*” next to the rating indicates a 250 ppm test suspension was used, a double asterisk “**” next to the rating indicates a 100 ppm test suspension was used, and a triple asterisk “***” next to the rating indicates a 50 ppm test suspension was used.

[3] = tested on: Puccinia recondita f. sp. tritici (the causal agent of wheat leaf rust); assay: Test C: preventive spray on wheat seedlings, wheat leaf rust, visual disease rating; conditions: for pest or weed control at 10 µg/mL: read-out: Test C disease control rating
Method in brief: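 Wheat seedlings sprayed to run-off with compound in acetone/water (50/50) with 250 ppm PEG400, then inoculated with spores the following day. After 24 h saturated humidity at 20° C. and 6 days in growth chamber at 20° C., disease rated visually as % control relative to untreated controls.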

[4] = test suspension 250 ppm, wheat seedlings
[5] = Phakopsora pachyrhizi, 216 h, test suspension 10 ppm, soybean seedlings, 100 = 100% disease control, 0 = no control
[6] = Zymoseptoria tritici, 456 h, test suspension 100 ppm (** next to rating), wheat seedlings
[7] = Puccinia recondita, 168 h, test suspension 10 ppm, wheat seedlings
[8] = Phakopsora pachyrhizi, 216 h, test suspension 250 ppm, soybean seedlings
[9] = Zymoseptoria tritici, 456 h, test suspension 250 ppm, wheat seedlings
[10] = Puccinia recondita, 168 h, test suspension 250 ppm, wheat seedlings
[11] = 10 ppm test suspension, soybean seedlings, 100 = 100% disease control, 0 = no control
[12] = 10 ppm test suspension, wheat seedlings, 100 = 100% disease control, 0 = no control
[13] = 50 ppm test suspension, soybean seedlings, 100 = 100% disease control, 0 = no control
[14] = 50 ppm test suspension, wheat seedlings, 100 = 100% disease control, 0 = no control

SMILES | Test A disease control rating [1, 11] | Test C disease control rating [3, 12] | further results
ON=Cc1cnn(Cc2ccc(-c3noc(C(F)(F)F)n3)cc2)c1 (mixture of isomers) [compound 20] |  |  | Test A disease control rating ([1]; test suspension 250 ppm, soybean seedlings): 100%; Test B disease control rating [2, 4]: 99%; Test C disease control rating [3, 4]: 100%
CCOC(=O)c1cnn(C(C)c2ccc(-c3noc(C(F)(F)F)n3)cc2)c1 (stereo not shown) [Compound 2, ethyl 1-[1-[4-[5-(trifluoromethyl)-1,2,4-oxadiazol-3-yl]phenyl]ethyl]-1H-pyrazole-4-carboxylate] |  |  | pest or weed control at 10 µg/mL [1, 5]: 100%; pest or weed control at 100 µg/mL [2, 6]: 98%; pest or weed control at 10 µg/mL [3, 7]: 99%
CN(C)C(=O)C1=NOC(Cc2ccc(-c3noc(C(F)(F)F)n3)cc2)C1 (stereo not shown) [Compound 12, 4,5-dihydro-N,N-dimethyl-5-[[4-[5-(trifluoromethyl)-1,2,4-oxadiazol-3-yl]phenyl]methyl]-3-isoxazolecarboxamide] |  |  | pest or weed control at 255 µg/mL ([1]; Phakopsora pachyrhizi, 216 h, test suspension 255 ppm, soybean seedlings): 100%; pest or weed control at 255 µg/mL ([2]; Zymoseptoria tritici, 456 h, test suspension 255 ppm, wheat seedlings): 98%; pest or weed control at 255 µg/mL ([3]; Puccinia recondita, 168 h, test suspension 255 ppm, wheat seedlings): 100%
N#CC(Nc1ccccc1)c1ccc(-c2noc(C(F)(F)F)n2)cc1 (stereo not drawn) [Compound 13, α-(phenylamino)-4-[5-(trifluoromethyl)-1,2,4-oxadiazol-3-yl]benzeneacetonitrile] |  |  | pest or weed control at 250 µg/mL [1, 8]: 100%; pest or weed control at 250 µg/mL [2, 9]: 85%; pest or weed control at 250 µg/mL [3, 10]: 100%
COC(=O)c1cnn(Cc2ccc(-c3noc(C(F)(F)F)n3)cc2)c1 [Compound 21, methyl 1-[[4-[5-(trifluoromethyl)-1,2,4-oxadiazol-3-yl]phenyl]methyl]-1H-pyrazole-4-carboxylate] |  |  | pest or weed control at 10 µg/mL ([1]; Phakopsora pachyrhizi, 216 h): 100%; pest or weed control at 100 µg/mL ([2]; Zymoseptoria tritici, 456 h): 97%; pest or weed control at 10 µg/mL ([3]; Puccinia recondita, 168 h): 100%
N#CCOC(=O)c1cnn(Cc2ccc(-c3noc(C(F)(F)F)n3)cc2)c1 [Compound 57, cyanomethyl 1-[[4-[5-(trifluoromethyl)-1,2,4-oxadiazol-3-yl]phenyl]methyl]-1H-pyrazole-4-carboxylate] |  |  | pest or weed control at 10 µg/mL [1, 5]: 100%; pest or weed control at 100 µg/mL [2, 6]: 99%; pest or weed control at 10 µg/mL [3, 7]: 100%
FC(F)(F)c1nc(-c2ccc(Cn3cc(Br)cn3)s2)no1 [Compound 71, 3-[5-[(4-bromo-1H-pyrazol-1-yl)methyl]-2-thienyl]-5-(trifluoromethyl)-1,2,4-oxadiazole] |  |  | pest or weed control at 250 µg/mL [1, 8]: 100%; pest or weed control at 250 µg/mL [2, 9]: 36%; pest or weed control at 250 µg/mL [3, 10]: 100%
O=C(OCCCCl)c1cnn(Cc2ccc(-c3noc(C(F)(F)F)n3)cc2)c1 [compound 448] | 100% | 100% | 
O=C(NCC(F)(F)F)c1cnn(Cc2ccc(-c3noc(C(F)(F)F)n3)cc2)c1 [compound 449] | 100% | 100% | 
CCOC(=O)c1cnn(Cc2ccc3cc(-c4noc(C(F)(F)F)n4)ccc3c2)c1 [compound 457] |  |  | Test A disease control rating [1, 13]: 77%; Test C disease control rating [3, 14]: 0%
CN(C)C(=O)C1=NOC(Cc2ccc(-c3noc(C(F)(F)F)n3)s2)C1 (stereo not shown) [compound 460] |  |  | Test A disease control rating [1, 13]: 100%; Test C disease control rating [3, 14]: 99%
COCCNC(=O)C1=NOC(Cc2ccc(-c3noc(C(F)(F)F)n3)s2)C1 (stereo not shown) [compound 461] |  |  | Test A disease control rating [1, 13]: 100%; Test C disease control rating [3, 14]: 100%
O=C1N(Cc2ccc(-c3noc(C(F)(F)F)n3)cc2)CCc2cncn21 [compound 462] | 100% | 89% | 
COCCCOC(=O)c1cnn(Cc2ccc(-c3noc(C(F)(F)F)n3)cc2)c1 [compound 474] | 100% | 100% | 
O=C(OCCN1CCOCC1)c1cnn(Cc2ccc(-c3noc(C(F)(F)F)n3)cc2)c1 [compound 475] | 100% | 91% | 
CCOC(=O)COC(=O)c1cnn(Cc2ccc(-c3noc(C(F)(F)F)n3)cc2)c1 [compound 476] | 100% | 86% | 
O=C(OCCCl)c1cnn(Cc2ccc(-c3noc(C(F)(F)F)n3)cc2)c1 [compound 477] | 100% | 100% | 
O=C(OCCBr)c1cnn(Cc2ccc(-c3noc(C(F)(F)F)n3)cc2)c1 [compound 478] |  |  | Test A disease control rating [1, 13]: 81%; Test C disease control rating [3, 14]: 19%
O=C(OCc1ccccn1)c1cnn(Cc2ccc(-c3noc(C(F)(F)F)n3)cc2)c1 [compound 479] | 100% | 100% | 
CC(C)CCOC(=O)c1cnn(Cc2ccc(-c3noc(C(F)(F)F)n3)cc2)c1 [compound 480] | 100% | 98% | 
CCC(C)OC(=O)c1cnn(Cc2ccc(-c3noc(C(F)(F)F)n3)cc2)c1 (stereo not shown) [compound 481] | 100% | 100% | 
C=C(Cl)COC(=O)c1cnn(Cc2ccc(-c3noc(C(F)(F)F)n3)cc2)c1 [compound 482] | 100% | 100% | 
O=C(NCc1cccnc1)c1cnn(Cc2ccc(-c3noc(C(F)(F)F)n3)cc2)c1 [compound 483] | 100% | 54% | 
O=C(NCc1ccccc1)c1cnn(Cc2ccc(-c3noc(C(F)(F)F)n3)cc2)c1 [compound 484] | 100% | 100% | 
O=C(Nc1ccccc1)c1cnn(Cc2ccc(-c3noc(C(F)(F)F)n3)cc2)c1 [compound 485] | 100% | 99% | 
C=C(C#N)COC(=O)c1cnn(Cc2ccc(-c3noc(C(F)(F)F)n3)cc2)c1 [compound 486] | 100% | 89% | 
CCCOC(=O)c1cnn(C(C)c2ccc(-c3noc(C(F)(F)F)n3)s2)c1 (stereo not shown) [compound 493] | 100% | 100% | 
Cc1ccc(C(O)c2ccc(-c3noc(C(F)(F)F)n3)cc2)cc1 (stereo not shown) [compound 501] | 100% | 0% | 
FC(F)(F)c1nc(-c2ccc(Cn3ccc(S(F)(F)(F)(F)F)n3)cc2)no1 [compound 503] | 43% | 0% | 
FC(F)(F)c1nc(-c2ccc(Cn3nccc3S(F)(F)(F)(F)F)cc2)no1 [compound 504] | 74% | 0% | 
